US20200008825A1, “SUSTAINED INTRATONSILLAR DRUG DELIVERY WITH NEEDLE ARRAY” (SOUTHERN RESEARCH INSTITUTE, priority 2017, published 2020)

Test system: CD3 positive T-cells in rabbit tonsils
Assay: percentage of CD3 positive T-cells in rabbit tonsils injected with mometasone versus control (FIG. 11)
Type: in vivo
Description: FIG. 11 includes a graph illustrating a percentage of cluster-of-differentiation-3 (CD3) T-cell co-receptors in a rabbit when treated with mometasone versus a control. Referring now to FIG. 11, a graph is shown illustrating a percentage of cluster-of-differentiation-3 (CD3) T-cell co-receptors in a rabbit when treated with mometasone versus a control. In immunology, the CD3 T-cell co-receptor helps to activate both the cytotoxic T-Cell (CD8+ naive T cells) and also T helper cells (CD4+ naive T cells). CD3 consists of a protein complex and is composed of four distinct chains.

Structure (SMILES): C[C@@H]1C[C@H]2[C@@H]3CCC4=CC(=O)C=C[C@]4(C)[C@@]3(Cl)[C@@H](O)C[C@]2(C)[C@@]1(O)C(=O)CCl [mometasone]
- CD3 positive T-cells (percentage): significantly lower
